Like-named read-outs stand apart in the source and are kept apart here.
Key:
heparinized whole blood = conditions: for ability to preserve specimen glucose (in words): 10 mmol/L, 8 hours; for Decrease (glucose loss) / Glucose at 8 hours / Glucose at 0 Hours: agent at 10 mmol/L; for Decrease (glucose loss): 0 to 8 hours, no additions 41%; for Glucose at 8 hours: 8 hours at room temperature; for Glucose at 8 hours / Glucose at 0 Hours: mean(SD); for IC50: read-out: concentration that reduced glycolytic loss by half, 8 hours incubation at room temperature
Excerpt: Whole blood specimens collected in tubes containing sodium heparin as anticoagulant were obtained from healthy adult volunteers or from adult diabetic patients visiting an outpatient clinic, after obtaining informed consent. Specimens were employed for experimentation within one hour of collection. In a few experiments, whole blood heparinized specimens arriving at the clinical laboratory for analysis for glucose and other common analytes were mixed, and aliquots removed for experimental purposes. These studies were conducted in accordance with a protocol approved by the Human Studies Committee of Washington University.
Aliquots of heparinized whole blood (0.96 mL) were pipetted into microfuge tubes containing 0.040 mL of saline or anti-glycolytic agent in saline. Anti-glycolytic agents were prepared as 250 mmol/L stock solutions within one hour of use. At various times plasma was prepared from incubations by centrifugation at 8000×G for two minutes; plasma was decanted to 12×75 mm tubes and stored frozen until analysis. All incubations of whole blood were conducted at room temperature (23°) on a rotating table shaker, which kept the cells in dispersed suspension. d,1-glyceraldehyde, methylgloxal, d-glyceraldehyde, glycolaldehyde and dihydroxyacetone were obtained from Sigma Chem Co. (St. Louis, Mo.). 1-glyceraldehyde was obtained from Fisher Scientific (Pittsburgh, Pa.).
Glucose analyses were routinely performed on a Cobas-MIRA analyzer (Roche Diagnostic Systems, Montclair, N.J.), employing reagents based on glucose oxidase, manufactured by Sigma Diagnostics (St. Louis, Mo.). In some experiments, glucose and many other common laboratory analyses were performed on a Vitros 250 Analyzer (Ortho-Clinical Diagnostics, Rochester, N.Y.), a Hitachi 747 Analyzer (Boehringer-Mannheim Corp., Indianapolis, Ind.) and a RxL Analyzer (Dade Behring, Inc. Newark, Del.).
Whole heparinized blood was incubated for 0-8 hours in the presence of 10 mmol/L d,1-GA, and the glycolytic loss of glucose followed over time (FIG. 1).
Whole heparinized blood was incubated for 8 hours in the presence of 0-10 mmol/L d,1-GA (FIG. 2).
Several compounds related biochemically or structurally to d,1-GA were tested for ability to preserve specimen glucose; incubations without inhibitor and with d,1-GA were included for comparison (Table I). All compounds were tested at a final concentration of 10 mmol/L, and incubations were conducted at 0 hours and 8 hours for each compound. […] To test this possibility, an experiment varying the concentration of 1-GA was performed in analogy with the earlier experiment varying the d,1-GA concentration (see above).

[1] = test system: erythrocyte potassium homeostasis; experiment: Effect on erythrocyte potassium homeostasis (plasma potassium in whole blood incubations); type: cell-based, human; conditions: 10 mmol/L d,1-GA; room temperature; 4.0±0 mmol/L at 0 hours
Protocol: 1-glyceraldehyde was obtained from Fisher Scientific (Pittsburgh, Pa.).
The time course of potassium concentration changes was followed for 8 hours in whole blood incubations under three conditions; 1) incubation at room temperature (without additions), 2) incubation at room temperature with 10 mmol/L d,1-GA, and 3) incubation at 4° C. (without additions). In room temperature incubations without additive, potassium decreased modestly from 4.0±0 mmol/L at 0 hours to 3.5±0.1 mmol/L at 8 hours. Incubation for 8 hours in the presence of d,1-GA caused an increase of similar magnitude (to 4.5±0 mmol/L). In contrast, incubation at 4° C., which has been advocated as an effective way to prevent glucose loss for short periods (Lin et al., Clin. Chem., 22:2031-3 (1976)), caused an increase to 6.0±0.1 mmol/L.

[2] = test system: patient whole blood specimens; experiment: Efficacy of d,1-GA in patient specimens: initial glucose vs glucose after 8 hours incubation; type: cell-based, human; conditions: 10 mmol/L d,1-GA
Excerpt: Results are presented by plotting initial glucose concentration against glucose concentrations either in the presence or absence of d,1-GA (FIG. 3).

| SMILES | hemolysis (heparinized whole blood) | elimination of glycolytic loss (in words) (heparinized whole blood; 2.5 mmol/L 1-GA, 8 hour incubation, data not shown) | ability to preserve specimen glucose (in words) (heparinized whole blood) | Decrease (glucose loss) (heparinized whole blood) | Glucose at 8 hours (heparinized whole blood) | Glucose at 0 Hours (heparinized whole blood) | IC50 (heparinized whole blood) | plasma potassium at 8 hours [1] | residual glucose at 8 hours (heparinized whole blood; 5 mmol/L d,1-GA, start 4.8±0.1 mmol/L, FIG. 2) | loss of glucose at 8 hours (heparinized whole blood; 10 mmol/L d,1-GA, FIG. 1, without additive 38% lost) | hemolysis (heparinized whole blood; whole blood incubation with additive) | reduction of the extent of glucose loss compared with absence of d,1-GA [2] |
| --- | --- | --- | --- | --- | --- | --- | --- | --- | --- | --- | --- | --- |
| O=C[C@@H](O)CO [1-GA, 1-glyceraldehyde] | does not cause hemolysis | nearly completely effective | completely prevented | 0% | 4.8(0.1) mmol/L | 4.8(0.1) mmol/L | ~650 µM |  |  |  |  |  |
| O=C(O)C(O)CO (stereo not shown) [Glyceric Acid, reference compound] |  |  |  | 42% | 2.7(0.2) mmol/L | 4.7(0.1) mmol/L |  |  |  |  |  |  |
| O=CCO [Glycolaldehyde, reference compound] |  |  |  | 52% | 2.3(0.1) mmol/L | 4.8(0.1) mmol/L |  |  |  |  |  |  |
| O=C(CO)[C@@H](O)[C@H](O)[C@@H](O)CO [L-Sorbose, reference compound] |  |  | not effective | 38% | 3.1(0) mmol/L | 5.0(0.1) mmol/L |  |  |  |  |  |  |
| CC(=O)C=O [Methylglyoxal, reference compound] |  |  | ineffective | 43% | 2.6(0.2) mmol/L | 4.5(1.0) mmol/L |  |  |  |  |  |  |
| O=CC(O)CO (stereo not shown) [d,1-GA, d,1-glyceraldehyde] |  |  |  | 0% | 4.8(0.1) mmol/L | 4.7(0.2) mmol/L | ~900 µM | 4.5 ± 0 mmol/L | 4.6 ± 0.3 mmol/L | 2% | did not promote visible hemolysis | more than 7 fold |
| O=C[C@H](O)CO [d-GA, d-glyceraldehyde] |  |  | only partly effective | 17% | 3.9(0.1) mmol/L | 4.7(0.1) mmol/L |  |  |  |  |  |  |
